Assay: Displacement of [3H]-AVP from human V1b receptor after […] by liquid scintillation counting

For `CS(=O)(=O)N1CCC(Oc2ccc(CC(=O)N3CCC(N4C(=O)CCc5ccccc54)CC3)c(OC/C=C/I)c2)CC1`, which Ki is on record?
Its Ki is greater than 1 µM.
